In patent US10844077B2, “Thiazolyl-containing compounds for treating proliferative diseases” (Dana-Farber Cancer Institute, Inc., priority 2014, dated 2020):

What was measured:
Test in all cases: KINATIV assay of compounds I-3 and I-9, lysate directly labeled with ATP-biotin probe (no GF)
Format in all cases: cell-based
[1] = biological target: kinases in BCWM.1 cells (Homo sapiens, UniProt Q9UHD2); conditions: TBK1; Lys1; 1 μM, 90 min; no GF
Description: (§1) The cells were harvested and lysed. […] Bound kinases were identified and quantitated by ACTIVX as described in Patricelli et al., Biochemistry, 2007, 46(2): 350-358. The compounds were tested in duplicates against duplicate or quadruplicate control samples.

[2] = biological target: kinases in BCWM.1 cells (Homo sapiens, UniProt P51812); conditions: Lys2, 1 μM, 90 min, no GF
Description: as §1

[3] = biological target: kinases in BCWM.1 cells (Homo sapiens, UniProt Q9UBF8); conditions: PI4KB; ATP; 1 μM, 90 min; no GF
Description: as §1

[4] = biological target: kinases in BCWM.1 cells (Homo sapiens, UniProt Q9UL54); conditions: TAO2; Lys2; 1 μM, 90 min; no GF
Description: as §1

[5] = biological target: kinases in BCWM.1 cells (Homo sapiens, UniProt Q96PY6); conditions: NEK1; Lys2; 1 μM, 90 min; no GF
Description: as §1

[6] = biological target: kinases in BCWM.1 cells (Homo sapiens, UniProt Q9BYT3); conditions: STK33; Lys2; 1 μM, 90 min; no GF
Description: as §1

[7] = biological target: kinases in BCWM.1 cells (Homo sapiens, UniProt O15530); conditions: PDK1; Lys1; 1 μM, 90 min; no GF
Description: as §1

[8] = biological target: kinases in BCWM.1 cells (Homo sapiens, UniProt P53350); conditions: PLK1; Lys1; 1 μM, 90 min; no GF
Description: as §1

[9] = biological target: kinases in BCWM.1 cells (Homo sapiens, UniProt Q9Y2H1); conditions: NDR2; Lys2; 1 μM, 90 min; no GF
Description: as §1

[10] = biological target: kinases in BCWM.1 cells (Homo sapiens, UniProt P19525); conditions: PKR; Lys2; 1 μM, 90 min; no GF
Description: as §1

[11] = biological target: kinases in BCWM.1 cells (Homo sapiens, UniProt Q9Y2I7); conditions: PIP5K3; ATP; 1 μM, 90 min; no GF
Description: as §1

[12] = test system: kinases in BCWM.1 cells; conditions: 1 μM, 90 min, no GF
Description: as §1

[13] = biological target: kinases in BCWM.1 cells (Homo sapiens, UniProt P30291); conditions: Wee1; Lys2; 1 μM, 90 min; no GF
Description: as §1

[14] = biological target: kinases in BCWM.1 cells (Homo sapiens, UniProt Q9NZJ5); conditions: PEK; Lys2; 1 μM, 90 min; no GF
Description: as §1

[15] = biological target: kinases in BCWM.1 cells (Homo sapiens, UniProt Q16539); conditions: p38a, 1 μM, 90 min, no GF
Description: as §1

[16] = biological target: kinases in BCWM.1 cells (Homo sapiens, UniProt Q9H2G2); conditions: SLK; Lys2; 1 μM, 90 min; no GF
Description: as §1

[17] = biological target: kinases in BCWM.1 cells (Homo sapiens, UniProt Q7RTN6); conditions: STLK5; Activation Loop; 1 μM, 90 min; no GF
Description: as §1

[18] = biological target: kinases in BCWM.1 cells (Homo sapiens, UniProt P23443); conditions: p70S6K; Lys2; 1 μM, 90 min; no GF
Description: as §1

[19] = biological target: kinases in BCWM.1 cells (Homo sapiens, UniProt Q9UKI8); conditions: TLK1; Lys2; 1 μM, 90 min; no GF
Description: as §1

[20] = biological target: kinases in BCWM.1 cells (Homo sapiens, UniProt Q13523); conditions: PRP4; Lys2; 1 μM, 90 min; no GF
Description: as §1

[21] = biological target: kinases in BCWM.1 cells (Homo sapiens, UniProt Q6PHR2); conditions: ULK3; Lys2; 1 μM, 90 min; no GF
Description: as §1

[22] = biological target: kinases in BCWM.1 cells (Homo sapiens, UniProt Q8TD19); conditions: NEK9; Lys2; 1 μM, 90 min; no GF
Description: as §1

[23] = biological target: kinases in BCWM.1 cells (Homo sapiens, UniProt Q15208); conditions: NDR1; Lys2; 1 μM, 90 min; no GF
Description: as §1

[24] = biological target: kinases in BCWM.1 cells (Homo sapiens, UniProt O00329); conditions: PIK3CD; ATP; 1 μM, 90 min; no GF
Description: as §1

[25] = biological target: kinases in BCWM.1 cells (Homo sapiens, UniProt Q96S44); conditions: PRPK; ATP Loop; 1 μM, 90 min; no GF
Description: as §1

[26] = biological target: kinases in BCWM.1 cells (Homo sapiens, UniProt O95819); conditions: ZC1/HGK; Lys1; 1 μM, 90 min; no GF
Description: as §1

Chain of kinases in BCWM.1 cells (Homo sapiens, UniProt Q16539) (Q16539 2-360 limits assumed): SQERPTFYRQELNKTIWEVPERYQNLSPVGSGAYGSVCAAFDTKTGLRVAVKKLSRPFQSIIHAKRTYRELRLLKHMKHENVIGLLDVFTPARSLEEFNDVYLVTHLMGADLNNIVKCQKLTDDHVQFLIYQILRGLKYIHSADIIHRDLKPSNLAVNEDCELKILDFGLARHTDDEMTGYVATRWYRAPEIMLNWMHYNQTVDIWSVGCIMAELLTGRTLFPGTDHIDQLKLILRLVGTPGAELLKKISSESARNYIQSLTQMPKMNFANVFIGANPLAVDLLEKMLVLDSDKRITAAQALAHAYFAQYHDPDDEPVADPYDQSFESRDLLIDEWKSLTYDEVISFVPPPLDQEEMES
Chain of kinases in BCWM.1 cells (Homo sapiens, UniProt Q9UBF8) (Q9UBF8 2-816 limits assumed): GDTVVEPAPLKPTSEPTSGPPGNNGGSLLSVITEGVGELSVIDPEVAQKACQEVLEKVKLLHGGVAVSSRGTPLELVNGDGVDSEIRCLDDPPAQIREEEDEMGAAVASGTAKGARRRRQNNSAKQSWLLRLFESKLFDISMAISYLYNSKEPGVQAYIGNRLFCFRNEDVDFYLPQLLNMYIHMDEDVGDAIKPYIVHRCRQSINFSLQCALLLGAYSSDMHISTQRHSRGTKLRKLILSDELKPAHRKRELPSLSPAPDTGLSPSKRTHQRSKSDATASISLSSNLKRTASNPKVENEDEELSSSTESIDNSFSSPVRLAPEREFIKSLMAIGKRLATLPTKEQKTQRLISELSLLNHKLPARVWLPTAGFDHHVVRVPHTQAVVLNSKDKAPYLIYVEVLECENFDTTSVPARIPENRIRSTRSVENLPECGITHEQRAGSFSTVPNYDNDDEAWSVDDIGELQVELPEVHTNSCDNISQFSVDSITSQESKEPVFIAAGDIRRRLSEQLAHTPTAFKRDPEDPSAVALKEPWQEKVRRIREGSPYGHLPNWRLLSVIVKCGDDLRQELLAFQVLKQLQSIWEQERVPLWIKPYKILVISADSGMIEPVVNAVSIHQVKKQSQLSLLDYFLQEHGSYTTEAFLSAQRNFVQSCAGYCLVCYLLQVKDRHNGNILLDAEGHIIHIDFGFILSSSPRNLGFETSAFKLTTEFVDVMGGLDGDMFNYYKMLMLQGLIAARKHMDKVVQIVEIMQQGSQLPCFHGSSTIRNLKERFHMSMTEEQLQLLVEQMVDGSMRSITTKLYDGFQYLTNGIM
Chain of kinases in BCWM.1 cells (Homo sapiens, UniProt Q13523) (Q13523 2-1007 limits assumed): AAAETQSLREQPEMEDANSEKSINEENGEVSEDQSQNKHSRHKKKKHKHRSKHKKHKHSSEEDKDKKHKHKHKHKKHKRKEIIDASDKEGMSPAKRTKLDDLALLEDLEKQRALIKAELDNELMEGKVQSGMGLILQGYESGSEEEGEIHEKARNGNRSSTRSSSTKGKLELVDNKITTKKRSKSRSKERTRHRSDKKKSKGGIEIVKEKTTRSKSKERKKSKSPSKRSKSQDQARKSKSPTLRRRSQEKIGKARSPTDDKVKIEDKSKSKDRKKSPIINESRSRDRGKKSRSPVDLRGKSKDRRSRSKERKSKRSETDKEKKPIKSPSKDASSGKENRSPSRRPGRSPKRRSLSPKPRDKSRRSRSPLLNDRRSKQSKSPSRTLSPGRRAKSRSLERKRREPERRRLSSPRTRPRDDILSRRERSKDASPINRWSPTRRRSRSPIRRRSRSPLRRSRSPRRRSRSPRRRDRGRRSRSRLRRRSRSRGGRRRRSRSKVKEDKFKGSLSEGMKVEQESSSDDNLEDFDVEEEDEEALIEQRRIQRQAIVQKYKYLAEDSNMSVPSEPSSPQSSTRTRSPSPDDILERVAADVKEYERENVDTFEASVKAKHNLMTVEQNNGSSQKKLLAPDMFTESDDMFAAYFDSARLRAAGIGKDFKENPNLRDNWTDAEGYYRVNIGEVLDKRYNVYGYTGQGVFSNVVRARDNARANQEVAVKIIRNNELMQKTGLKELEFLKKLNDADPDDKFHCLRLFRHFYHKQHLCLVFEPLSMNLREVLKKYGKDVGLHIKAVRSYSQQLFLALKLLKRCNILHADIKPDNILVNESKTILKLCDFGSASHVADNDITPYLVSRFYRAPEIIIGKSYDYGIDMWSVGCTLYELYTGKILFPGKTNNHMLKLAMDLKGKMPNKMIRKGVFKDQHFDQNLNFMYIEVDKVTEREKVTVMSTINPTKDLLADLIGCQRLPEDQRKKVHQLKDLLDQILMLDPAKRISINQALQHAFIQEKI
Chain of kinases in BCWM.1 cells (Homo sapiens, UniProt O95819) (O95819 2-1239 limits assumed): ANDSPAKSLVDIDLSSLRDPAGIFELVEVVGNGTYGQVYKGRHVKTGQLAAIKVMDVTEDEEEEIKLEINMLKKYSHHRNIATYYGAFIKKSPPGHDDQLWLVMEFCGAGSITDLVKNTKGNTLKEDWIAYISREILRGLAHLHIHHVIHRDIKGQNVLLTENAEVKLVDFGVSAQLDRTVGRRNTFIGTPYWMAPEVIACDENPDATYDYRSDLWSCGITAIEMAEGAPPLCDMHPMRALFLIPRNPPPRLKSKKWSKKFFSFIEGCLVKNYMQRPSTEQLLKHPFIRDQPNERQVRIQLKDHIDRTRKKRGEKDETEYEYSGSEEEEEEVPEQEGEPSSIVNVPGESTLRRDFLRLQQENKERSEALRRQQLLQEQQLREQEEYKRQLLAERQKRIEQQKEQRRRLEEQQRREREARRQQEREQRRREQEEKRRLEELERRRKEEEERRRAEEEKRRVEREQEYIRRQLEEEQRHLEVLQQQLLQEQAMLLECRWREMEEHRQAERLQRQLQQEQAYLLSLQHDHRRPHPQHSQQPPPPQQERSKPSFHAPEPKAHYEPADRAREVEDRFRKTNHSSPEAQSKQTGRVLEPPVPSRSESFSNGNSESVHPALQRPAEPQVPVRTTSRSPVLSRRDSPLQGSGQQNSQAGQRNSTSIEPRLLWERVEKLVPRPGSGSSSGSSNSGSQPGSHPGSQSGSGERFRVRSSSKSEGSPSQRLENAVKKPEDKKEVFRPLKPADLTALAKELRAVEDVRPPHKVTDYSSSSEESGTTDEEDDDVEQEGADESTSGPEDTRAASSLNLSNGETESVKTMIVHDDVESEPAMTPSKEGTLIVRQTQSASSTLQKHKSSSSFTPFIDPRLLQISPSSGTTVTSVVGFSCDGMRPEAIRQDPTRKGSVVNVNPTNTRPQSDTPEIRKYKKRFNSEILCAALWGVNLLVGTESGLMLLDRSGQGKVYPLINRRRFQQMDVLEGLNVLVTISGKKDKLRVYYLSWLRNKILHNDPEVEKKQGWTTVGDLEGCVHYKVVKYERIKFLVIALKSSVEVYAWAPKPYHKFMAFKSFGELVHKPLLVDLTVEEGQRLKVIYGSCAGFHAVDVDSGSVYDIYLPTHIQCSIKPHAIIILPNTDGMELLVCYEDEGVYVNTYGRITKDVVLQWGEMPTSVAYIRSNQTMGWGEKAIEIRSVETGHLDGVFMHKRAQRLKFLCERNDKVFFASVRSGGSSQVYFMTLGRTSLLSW
Chain of kinases in BCWM.1 cells (Homo sapiens, UniProt Q8TD19) (Q8TD19 2-979 limits assumed): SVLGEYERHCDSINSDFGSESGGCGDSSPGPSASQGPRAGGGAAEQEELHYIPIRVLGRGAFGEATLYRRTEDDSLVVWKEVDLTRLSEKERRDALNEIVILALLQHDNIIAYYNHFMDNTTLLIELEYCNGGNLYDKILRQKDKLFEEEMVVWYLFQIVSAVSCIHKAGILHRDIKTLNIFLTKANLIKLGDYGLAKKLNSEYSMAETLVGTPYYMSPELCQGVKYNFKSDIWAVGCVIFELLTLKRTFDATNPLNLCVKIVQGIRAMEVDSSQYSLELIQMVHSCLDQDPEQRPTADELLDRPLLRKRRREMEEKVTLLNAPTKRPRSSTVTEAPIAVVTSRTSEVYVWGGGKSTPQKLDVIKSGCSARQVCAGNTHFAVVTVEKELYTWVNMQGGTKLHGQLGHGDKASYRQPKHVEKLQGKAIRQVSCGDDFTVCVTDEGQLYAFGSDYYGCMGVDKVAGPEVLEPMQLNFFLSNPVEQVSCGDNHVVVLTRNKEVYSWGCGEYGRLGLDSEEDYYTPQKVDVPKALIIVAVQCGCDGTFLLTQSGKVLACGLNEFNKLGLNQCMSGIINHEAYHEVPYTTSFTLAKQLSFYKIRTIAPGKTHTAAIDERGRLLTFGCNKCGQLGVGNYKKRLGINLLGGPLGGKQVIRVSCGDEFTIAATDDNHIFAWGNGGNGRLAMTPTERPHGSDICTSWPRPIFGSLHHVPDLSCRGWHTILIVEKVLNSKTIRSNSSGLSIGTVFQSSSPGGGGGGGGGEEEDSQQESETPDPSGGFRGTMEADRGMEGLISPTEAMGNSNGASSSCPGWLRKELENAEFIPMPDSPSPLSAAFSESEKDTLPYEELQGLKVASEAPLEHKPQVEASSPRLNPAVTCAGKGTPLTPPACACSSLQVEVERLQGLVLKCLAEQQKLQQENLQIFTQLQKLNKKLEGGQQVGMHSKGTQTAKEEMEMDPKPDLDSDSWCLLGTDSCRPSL
Chain of kinases in BCWM.1 cells (Homo sapiens, UniProt P19525) (P19525 2-551 limits assumed): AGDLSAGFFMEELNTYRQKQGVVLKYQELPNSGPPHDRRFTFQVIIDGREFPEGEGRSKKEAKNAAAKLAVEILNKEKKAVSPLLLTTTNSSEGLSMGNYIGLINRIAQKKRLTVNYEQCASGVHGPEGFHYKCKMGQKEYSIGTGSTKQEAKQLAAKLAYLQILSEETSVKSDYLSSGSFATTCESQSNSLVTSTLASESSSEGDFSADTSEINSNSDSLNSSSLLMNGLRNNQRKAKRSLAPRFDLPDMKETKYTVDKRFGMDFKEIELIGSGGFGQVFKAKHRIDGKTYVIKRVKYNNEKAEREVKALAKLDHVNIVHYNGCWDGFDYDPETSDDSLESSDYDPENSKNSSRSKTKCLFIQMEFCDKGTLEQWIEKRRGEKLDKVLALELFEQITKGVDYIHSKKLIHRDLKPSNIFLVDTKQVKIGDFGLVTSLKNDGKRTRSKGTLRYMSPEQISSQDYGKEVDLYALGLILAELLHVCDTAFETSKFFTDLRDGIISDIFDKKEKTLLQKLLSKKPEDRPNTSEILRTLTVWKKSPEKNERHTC

CCC(=O)N1CC[C@H](Nc2nccc(Nc3ncc(C(=O)Nc4c(C)cccc4C)s3)n2)C1 [Example I-9]
% change of MS signal compared to control sample [1]: 23% | % change of MS signal compared to control sample ([2]; RSK2 domain1): −5.6% | % change of MS signal compared to control sample ([2]; RSK2 domain2): −9.7% | % change of MS signal compared to control sample [3]: −24.3% | % change of MS signal compared to control sample [4]: 4.3% | % change of MS signal compared to control sample [5]: −3.7% | % change of MS signal compared to control sample [6]: 20.2% | % change of MS signal compared to control sample [7]: −6.4% | % change of MS signal compared to control sample [8]: 2.1% | % change of MS signal compared to control sample [9]: −5.6% | % change of MS signal compared to control sample [10]: −8% | % change of MS signal compared to control sample [11]: −6.7% | % change of MS signal compared to control sample ([12]; MST4, YSK1, Lys2): 9.7% | % change of MS signal compared to control sample ([12]; NEK6, NEK7, Lys2): −3.3% | % change of MS signal compared to control sample ([12]; PCTAIRE2, PCTAIRE3, Lys1): −4.7% | % change of MS signal compared to control sample ([12]; PI4KA, PI4KAP2, ATP): 20.3% | % change of MS signal compared to control sample ([12]; PKACa, PKCb, Lys2): 16.9% | % change of MS signal compared to control sample ([12]; ROCK1, ROCK2, Lys2): 24.4% | % change of MS signal compared to control sample ([12]; RSK1 domain1, RSK2 domain1, RSK3 domain1, Lys2): −12% | % change of MS signal compared to control sample ([12]; SRPK1, SRPK2, Lys1): 10% | % change of MS signal compared to control sample ([12]; TAO1, TAO3, Lys2): 5.1% | % change of MS signal compared to control sample ([12]; Wnk1, Wnk2, Wnk3, Lys2): −10.8% | % change of MS signal compared to control sample ([12]; Wnk1, Wnk2, ATP Loop): −6.3% | % change of MS signal compared to control sample ([12]; ZC1/HGK, ZC2/TNIK, ZC3/MINK, Lys2): −2% | % change of MS signal compared to control sample ([12]; p38d, p38g, Lys2): −8.8% | % change of MS signal compared to control sample [13]: 14.3% | % change of MS signal compared to control sample [14]: 22.1% | % change of MS signal compared to control sample ([15]; Lys2): −7.8% | % change of MS signal compared to control sample ([15]; Protein Kinase Domain): −2.9% | % change of MS signal compared to control sample [16]: −6% | % change of MS signal compared to control sample [17]: −12.9% | % change of MS signal compared to control sample [18]: 15.9% | % change of MS signal compared to control sample [19]: −7.9% | % change of MS signal compared to control sample [20]: −24.8% | % change of MS signal compared to control sample [21]: −16.4% | % change of MS signal compared to control sample [22]: −21.3% | % change of MS signal compared to control sample [23]: −4.2% | % change of MS signal compared to control sample [24]: −19.7% | % change of MS signal compared to control sample [25]: −2% | % change of MS signal compared to control sample [26]: 20.9%
